One assay relates to SKMEL-2 cells. Nature of the assay: Clonogenicity inhibition. The format is cell-based. Particulars: Homo sapiens, SK-MEL-2; SKMEL-2 (H); 72 h; read-out: Clono IC50. The source says: (§1) Supplementary Fig. 1. a DDA inhibited m elanom a colony form ation. Melanom a cells were […]
(§2) a 0.5% solution of crystal violet in water and analyzed by microscopy. Images are representative of 5 independent experiments. b Evaluation of DDA-induced cytotoxicity (cytotox) and clonogenicity (clono) inhibition in a subset of human (H) and mouse (M) m elanom a cell lines. T he BRaf status in m elanom a cells lines is shown. […]

The next assay has as its system WM-266-4 cells. Nature of the assay: Clonogenicity inhibition. The format is cell-based. Particulars: Homo sapiens; WM-266-4 (H); 72 h; read-out: Clono IC50.
Text: as §1, §2

The next assay deals with A375 cells. Nature of the assay: Clonogenicity inhibition. The format is cell-based. The conditions noted are these: Homo sapiens, A-375; A375 (H); 72 h; read-out: Clono IC50.
Text: as §1, §2

For a further assay, the system named is WM35 cells. Nature of the assay: Clonogenicity inhibition. The format is cell-based. Particulars: Homo sapiens; WM35 (H); 72 h; read-out: Clono IC50.
Text: as §1, §2

The next assay concerns WM115 cells. Nature of the assay: Clonogenicity inhibition. The class given is cell-based. Particulars: Homo sapiens, WM-115; WM115 (H); 72 h; read-out: Clono IC50.
Text: as §1, §2

For the next assay, the system named is B16F10 cells. Nature of the assay: Clonogenicity (colony formation) inhibition. The format is cell-based. Particulars: Mus musculus, B16-F10; B16F10 (M); 72 h; read-out: Clono IC50.
Text: as §1, §2

For another assay, the system named is SKMEL-28 cells. Briefly: Clonogenicity (colony formation) inhibition. The format is cell-based. The conditions noted are these: Homo sapiens, SK-MEL-28; SKMEL-28 (H); 72 h; read-out: Clono IC50.
Text: as §1, §2

A further assay has as its system KG1 tumors. Briefly: Subcutaneous KG1 tumor xenograft. The format is in vivo, mice. The protocol: Exponentially growing cells were harvested, washed twice in PBS then resuspended in PBS. SKMEL-28, shSKMEL-28 clones (5 × 10^6 cells) and B16F10 (3 × 10^5) cells were injected subcutaneously (s.c.) into the flank of nude mice. HL60, KG1 and shKG1-clones (5 × 10^6) were inoculated s.c. into the flanks of NOD/SCID mice. When tumors were palpable, animals (n = 10–20 mice per group, as indicated) were randomized to receive either DDA (20 mg/kg) intraperitoneally (i.p.) or 40 mg/kg by oral gavage (p.o), once a day, or vehicle solvent for the indicated time. Animals were examined daily and body weights were measured twice a week. In all experiments, tumor volume was determined by direct measurement with a caliper and was calculated using the formula (width^2 × length)/2. At the end of experiments, mice were sacrificed and tumors were excised and divided for intra-tumoral DDA quantification, immunoblotting, or immunohistochemistry analyses. […]
(n=16- 20 mice/group) engrafted with KG1 cells or HL60 cells were treated with DDA (20 mg/kg/day, i.p.) or solvent vehicle (control). Tumor growth was monitored over time and was analyzed for significance using repeated measures ANOVA (***P<0.001). The mean tumor volumes ± SEM are shown. e Average tumor weight at the end of the experiments in d. *P<0.5, **P<0.01, ANOVA. f Mean tumor volumes measured at the end of the experiments for HL60 and KG1 graf ted into NOD/SCID or NMRI-Fo x1 -nude mice treated with DDA (40 mg/kg/day, p.o. or 20 mg/kg/day, i.p.) or solvent vehicle (control) (n=10- 20 mice per group). Values represent the means ± S.E.M. (**P<0.01, ***P<0.001, ANOVA). g Histochemical analysis of the expression of LC3 and P62 in HL60 tumor sections isolated from NOD/SCID mice treated or not with DDA (20 mg/kg/day, i.p.). h Quantification of LC3 punctate cells in shCTRL and shLXRβ KG1 tumors. i Quantification of DDA levels in tumors 4 h after the final administration of DDA. j Box plot of TCGA RNA-seq data from patients with melanoma showing that LXRβ is the predominant LXR isoform expressed. […]

Another assay concerns HL60 cells. Nature of the assay: Immunoblot densitometry. The class given is cell-based, human. The conditions noted are these: 5 µM DDA, 24 h. The protocol:
Immunoblotting was carried out as described previously. Proteins were separated on SDS-PAGE gels, electro-transferred onto polyvinylidene difluoride membranes and incubated overnight at 4 °C with the following antibodies: anti-Atg3, anti-Atg5 (D1G9), anti-Atg7 (D12B11), anti-Beclin (D40C5), anti-caspase-3 (Cell Signaling), anti-Bcl-2 (Millipore), anti-Bax (Millipore), anti-LC3 (Sigma-Aldrich), anti-LXRα (SantaCruz), anti-LXRβ (SantaCruz), anti-Nur77 (Active motif), anti-NOR1 (R&D systems), anti-PARP (Cell Signaling), anti-Vps34 (Cell Signaling), or anti-Actin (Millipore). For visualization, an ECL plus kit (Amersham Biosciences) was used, and chemiluminescence was measured by autoradiography (Supplementary Fig. 9). Specific bands were quantified with ImageQuant software. […]
(n=16- 20 mice/group) engrafted with KG1 cells or HL60 cells were treated with DDA (20 mg/kg/day, i.p.) or solvent vehicle (control). Tumor growth was monitored over time and was analyzed for significance using repeated measures ANOVA (***P<0.001). The mean tumor volumes ± SEM are shown. e Average tumor weight at the end of the experiments in d. *P<0.5, **P<0.01, ANOVA. f Mean tumor volumes measured at the end of the experiments for HL60 and KG1 graf ted into NOD/SCID or NMRI-Fo x1 -nude mice treated with DDA (40 mg/kg/day, p.o. or 20 mg/kg/day, i.p.) or solvent vehicle (control) (n=10- 20 mice per group). […]

A further assay has as its system B16F10 tumors. Nature of the assay: B16F10 melanoma tumors in mice. The class given is in vivo. The conditions noted are these: mouse B16F10; i.p. 20 mg/kg/day. The protocol: Exponentially growing cells were harvested, washed twice in PBS then resuspended in PBS. SKMEL-28, shSKMEL-28 clones (5 × 10^6 cells) and B16F10 (3 × 10^5) cells were injected subcutaneously (s.c.) into the flank of nude mice. HL60, KG1 and shKG1-clones (5 × 10^6) were inoculated s.c. into the flanks of NOD/SCID mice. When tumors were palpable, animals (n = 10–20 mice per group, as indicated) were randomized to receive either DDA (20 mg/kg) intraperitoneally (i.p.) or 40 mg/kg by oral gavage (p.o), once a day, or vehicle solvent for the indicated time. Animals were examined daily and body weights were measured twice a week. In all experiments, tumor volume was determined by direct measurement with a caliper and was calculated using the formula (width^2 × length)/2. At the end of experiments, mice were sacrificed and tumors were excised and divided for intra-tumoral DDA quantification, immunoblotting, or immunohistochemistry analyses.

For orientation: IC50 means the concentration needed to halve the response being measured.

Regarding `CC(C)CCC[C@@H](C)[C@H]1CC[C@H]2[C@@H]3C[C@@H](NCCc4cnc[nH]4)[C@@]4(O)C[C@@H](O)CC[C@]4(C)[C@H]3CC[C@]12C` [DDA, Dendrogenin A], the IC50 in the assay on SKMEL-2 cells was determined as 1400 ± 400 nM; in the assay with WM-266-4 cells, 1200 ± 400 nM; with A375 cells it was 1500 ± 300 nM; in the assay on WM35 cells, 1400 ± 200 nM; with WM115 cells, 1500 ± 300 nM; in the assay on B16F10 cells, 1.2e-06 ± 3e-07 M. The IC50 with SKMEL-28 cells was determined as 1400 ± 600 nM. Also, the “Tumor volume at the end of the experiment” value in the assay with KG1 tumors (NOD/SCID mice, DDA i.p. 20mg/kg/d (control 1249±137)) is reported as 618±55 mm3; in the assay with KG1 tumors (NOD/SCID mice, DDA p.o. 40mg/kg/d (control 1249±137)), 400±68 mm3; with KG1 tumors (mice, DDA i.p. 20mg/kg/d (control 1134±389)), 443±62 mm3. Also, the “NOR1 protein, densitometry relative to untreated” value in the assay on HL60 cells worked out at 1.9. Also, the “Nur77 protein, densitometry relative to untreated” value in the assay with HL60 cells is on record as 1.8. Also, in the assay with B16F10 tumors, the tumor growth entry is “significantly reduced the growth”.
